# Assay results: patent US20260085315A1, “POLYNUCLEOTIDE COMPOSITIONS AND METHODS FOR TREATMENT OF CANCER” (APTAH BIO, INC., priority 2023, published 2026)
# Several values for one entry are separate records, joined by “and”; a condition that tells them apart may be missing. Equal entries are not always repeated. Entries after “also recorded” stand apart in the source; their conditions may differ. d = 2'-deoxy (DNA); m = 2'-O-methyl
# Key:
# U87-MG cell line = test: Apoptosis assay; assay type: cell-based, Human
# [1] = system: Human Glioblastoma Cancer (U-87MG) xenograft; test: Histopathology of tumor samples with scoring; assay type: in vivo, athymic nude mice; design: key: 1: Minimal Fibrosis; 2: Mild Fibrosis; 3: Moderate Fibrosis; 4: Prominent; conditions: individual animals; G3 APT20TTMG, G2 TMZ
# Excerpt: (§1) The fixed tissues were processed for routine paraffin embedding followed by sectioning (3-6 micron). The sections were stained with hematoxylin and eosin. The prepared slides were examined under microscope by the study pathologist to record histopathological findings in tumor samples, related to capsule formation, cell type, connective tissue stroma, apoptosis, necrosis, lipid content, nucleus-to-cytoplasmic (N:C) ratio, nuclei mitotic figures, tumor grade, and level of differentiation. Each histopathological finding and tumor volume were assigned a score ranging from 1 to 4 (Table 7). The sum of these scores for each sample was used to infer the tumor aggressiveness.
# AKT = test: ELISA of tumor tissue homogenate; assay type: in vivo, Human; conditions: in relation to the negative control
# Procedure: (§2) For the assessment of biomarkers such as cAMP, AKT, GFAP, and TAU by ELISA, the U-87MG tumor tissues dissected out from the animals were homogenized according to kit instructions. The homogenates were centrifugated, and the supernatant was collected and immunoassayed with the Human AKT Protein ELISA Kit (MyByoSouce), cyclic AMP Complete Enzyme-linked Immunosorbent Assay (ELISA) kit (MyByoSouce), Human Glial Fibrillary Acidic Protein (GFAP) ELISA Kit (Cusabio), and Human TAU Protein (TAU) ELISA Kit (MyByoSouce) for the quantitative determination of cAMP, AKT, GFAP, and TAU proteins, respectively.
# (§3) As shown in FIG. 37A-D, the graphs present the individual values of protein quantification of tumors from 6 animals. (A) cAMP, (B) […], (C) GFAP, and (D) TAU.
# GFAP = test: ELISA of tumor tissue homogenate; assay type: in vivo, Human; conditions: in relation to the non-treated control
# Procedure: as §2, §3
# TAU = test: ELISA of tumor tissue homogenate; assay type: in vivo, Human; conditions: after treatment
# Procedure: as §2, §3
# [2] = system: Human Glioblastoma Cancer (U-87MG) xenograft; test: Histopathology of tumor samples with scoring; assay type: in vivo, athymic nude mice; design: key to Score: Grade: 1: I; 2: II; 3: III; 4: IV; key to Score: Connective tissue stroma: 1: Minimal Fibrosis; 2: Mild Fibrosis; 3: Moderate Fibrosis; 4: Prominent; key to Score: N:C ratio: 3: High; 2: Low to High; 1: Low; key to Score: Apoptosis / Score: Lipid content: 4: Minimal; 3: Mild; 2: Moderate; 1: Prominent
# Excerpt: as §1
# [3] = system: neuroblastoma cell line (SK-N-SH); test: Cell viability over time; assay type: cell-based; conditions: 0.5 μM; 24, 48, 96, 144 hours; indicating a cytostatic effect
# Procedure: FIG. 26 illustrates cell viability results obtained after 24, 48, 96 and 144 hours of incubation with ASMO1 (0.5 μM) in neuroblastoma cell line (SK-N-SH).
# PC-3 cell line = test: MTT cytotoxicity assay on human cancer cell panel (Example 2); assay type: cell-based; conditions: 24, 48, 72 hours; 0.03-30 μM; 1% FBS
# Procedure: Cell lines were maintained in growth medium with 10% of Fetal Bovine Serum (FBS) until the time of the experiments. Cells were sub-cultured by trypsinization and splitting the cell suspension into fresh flasks and supplementing with fresh culture medium. To perform the assay, the cells were trypsinized, neutralized with complete medium (10% FBS), centrifuged, counted with assistance of a hemocytometer, and plated with the respective media with 10% FBS. Cell lines were plated at a density of 1×10^4 cells per well, other than the SH-SY5Y cell line which was plated at a density of 2.5×10^4. The preparation of the different experimental groups was done with 0.1% FBS (U87MG, MCF-7, SH-SY5Y and 786-O) and 1% FBS (PC-3). The untreated cells were used as negative control (medium only). After 24, 48, 72 and 96 hours of incubation, the effect of ASMO1 and controls on cytotoxicity of cells was determined by MTT assay.
# Briefly, plates were taken out and 20 μl of 5 mg/ml of MTT 3-(4,5-dimethythiazol-2-yl)-2,5-diphenyl tetrazolium bromide solution was added to all the wells. […] The absorbance of each well was then read at 540 nm using Synergy HT microplate reader.
# Cells were plated and treated with 7 different concentrations (0.03, 0.1, 0.3, 1, 3, 10 and 30 μM) of APT20TTMG with medium (1% FBS). MTT assay was performed in 3 distinct times and graphs are represented as absorbance (540 nm). […]
# SH-SY5Y cell line = test: Mitochondrial membrane potential; assay type: cell-based, Human; conditions: all treatments vs non-treated cells
# [4] = two highest concentrations (0.5 and 1 μM)
# [5] = individual animals, G3 APT20TTMG, G2 TMZ
substance,measurement,setting,value
"APT20TTMG: engineered polynucleotide ASMO1, 24 nt, SEQ ID NO: 3 gtccactaacctttcaggccagcg; targeting moieties 5′-GTCCA-3′ and 5′-CG-3′, U1 snRNP recruiting moiety (GTCCACTAACCTTTCAGGCCAGCG; sugars from the 5' end m5 d14 m5, all phosphorothioate, methylation of C and T or U not given here)",late apoptosis,U87-MG cell line; 0.25 μM,trend toward this state
same,late apoptosis,U87-MG cell line; [4],significantly marked for late apoptosis
same,viable cells (apoptosis assay),U87-MG cell line; [4],reduce cell viability
same,Score: Necrosis,[1],4
same,AKT expression in tumor tissue (ELISA),AKT,reduces the expression of ART protein
same,GFAP in tumor tissue (ELISA),GFAP,reduction of this biomarker
same,TAU expression in tumor tissue (ELISA),TAU,significant reduction in TAU expression
same,total score of histopathological findings and tumor volume,[2]; G3 20 mg/kg i.v. vs G1 vehicle,statistically lower scores than G1 group
same,histopathological findings compared to G1 (vehicle control),"[2]; G3 APT20TTMG 20 mg/kg i.v., G2 TMZ 5 mg/kg p.o.","less anaplastic features (lower grade) and cellular atypia, with fewer mitotic figures"
same,Histopathological findings: Cell Type,[2]; individual animals,"Cell Type - Irregular/spindle type cells; also recorded: Cell Type - Polymorphic (i.e., Moderately differentiated"
same,Histopathological findings (whole sample),"[2]; individual animals, G3",Only diffused necrotic area was observed.
same,Score: Capsule,"[2]; individual animals, G3",1
same,Histopathological findings: Capsule,"[2]; individual animals, G3 APT20TTMG 20 mg/kg i.v. q3dx7, G2 TMZ 5 mg/kg p.o. qdx21",Capsule - Present; also recorded: Capsule - Absent
same,Histopathological findings: Apoptosis,[2]; [5],Apoptosis - Mild; also recorded: Apoptosis - Moderate
same,Histopathological findings: Connective tissue stroma,[2]; [5],Connective tissue stroma - Moderate Fibrosis; also recorded: Connective tissue stroma - Mild Fibrosis
same,Histopathological findings: Grade,[2]; [5],Grade- 2; also recorded: Grade- 1; also recorded: Grade- 3
same,Histopathological findings: Lipid content,[2]; [5],Lipid content - Moderate; also recorded: Lipid content - Minimal; also recorded: Lipid content - Mild
same,Histopathological findings: Mitotic figures,[2]; [5],Mitotic figures - Active (Few in number); also recorded: Mitotic figures - Active (Moderate in number); also recorded: Mitotic figures - Active (Large in number)
same,Histopathological findings: N:C ratio,[2]; [5],N:C ratio - Low to High (Intermediate)
same,Histopathological findings: Necrosis,[2]; [5],Necrosis - Prominent; also recorded: Necrosis - Moderate; also recorded: Necrosis - Mild
same,Histopathological findings: Nuclei,[2]; [5],Nuclei - Hyperchromatic
same,Histopathological findings: level of differentiation,[2]; [5],Moderately differentiated; also recorded: Well differentiated
same,Score: Apoptosis,[2]; [5],3 (4×) and 2 (2×)
same,Score: Connective tissue stroma,[2]; [5],3 (4×) and 2 (2×)
same,Score: Grade,[2]; [5],2 (4×) and 1 and 3
same,Score: Lipid content,[2]; [5],3 (3×) and 1 and 2 (2×)
same,Score: N:C ratio,[2]; [5],1 (3×) and 2 (2×) and 3
same,Score: Volume Tumor,[2]; [5],1 (<500) (2×) and 2 (500-1000) (3×) and 3 (1000-1500)
same,number of viable cells,[3],remains practically the same
same,cytotoxic or cytostatic effect (MTT),PC-3 cell line,does not exert a cytotoxic or cytostatic effect
same,mitochondrial membrane potential,SH-SY5Y cell line,no change in mitochondrial membrane potential
